Here are results for two substances from US8216580B2, “Sulfatases and methods of use thereof” (The Regents of the University of California, priority 2000, dated 2012).

In assay [1] the test system is pancreatic adenocarcinoma cell lines. Description: Transwell co-culture proliferation (cell counts) with HEK 293 feeder layer. The assay is classed as cell-based, human. The conditions noted are these: exogenous protein from 293 feeder layer. As for the experimental part: Co-culture experiments were performed in transwell plates with 24-well inserts with 5 μm polycarbonate membrane pore size (Corning Incorporated). HEK 293 cells were plated in the wells as feeder layer and one day later 1-2×10^3 cells of the pancreatic adenocarcinoma cell lines were plated in the inserts. Cells were grown in DMEM supplemented with 10% fetal calf serum.
293 cells expressing either HSulf-2, HSulf-2-DCC, parental 293 or only medium alone were used as feeder layer; and pancreatic adenocarcinoma lines were grown on transwell filters. Subsequently, cell counts were followed over time.

Assay [2] deals with chick chorioallantoic membrane (CAM). The assay can be described thus: Chick chorioallantoic membrane (CAM) angiogenesis assay. In kind it is in vivo. The conditions noted are these: 5×10^6 stably transfected CHO cells on CAM of 9 day embryos, 72 hrs; compared to CHO-Sulf-1 or empty vector clone. How it is done: Sulf-2 functions as a heparan sulfate degrading enzyme (HSDE) during tumor angiogenesis by mobilizing angiogenic factors from sequestration with HSPGs We employed the chick chorioallantoic membrane (CAM) assay, a standard angiogenesis assay. CHO cells were stably transfected with HSulf-1, HSulf-2, or the empty vector and clones were isolated. Single clones of each type were implanted on the surface of the CAM of 9 day embryos. After 72 hrs, the number of new blood vessel branches was determined under a dissecting scope.
FIG. 17. Pro-angiogenic activity of HSulf-2. 5×10^6 CHO cells were implanted on the CAM of 9-day chick embryos. The CHO cells were clones that were stably transfected with either the empty vector (clone V1), HSulf-1 (clone 9) or HSulf-2 (clone 18). After 72 hrs of further incubation, the number of blood vessel branches was counted under a dissecting microscope. 6 eggs were treated with each type of CHO cell. Means and standard errors of the means are indicated.

In the case of “HSulf-2 ΔCC: catalytically inactive HSulf-2, cysteines 88 and 89 mutated to alanines (CC88, 89AA)”, the “proliferation (cell counts over time)” value is recorded as “inhibited” in assay [1] (BxPC-3, HS766T and L3.6sl cells); “did not show any response” in assay [1] (CFPAC-1 cells).

“HSulf-2: Human SULF2, an 870 amino acid sulfatase protein, SEQ ID NO:06; expressed with C-terminal Myc-His tag”: in assay [2], the “number of new blood vessel branches” value was “dramatic response”.
